Patent US20080200376A1, “Compositions and Methods For the Treatment Of Obesity and Sexual Dysfunction” (priority 2004, published 2008)

Tests used:
[1] = test system: foot tapping in gerbils induced by central injection of an NK-1 agonist; assay: Gerbil foot-tapping assay; assay type: in vivo; conditions: i.v.
Description: CNS-penetrant NK-1 receptor antagonists for use in the present invention can be identified by their ability to inhibit foot tapping in gerbils induced by anxiogenic agents (such as pentagastrin) or central infusion of NK-1 receptor agonists such as GR73632, or caused by aversive stimulation such as foot shock or single housing, based on the method of Rupniak & Williams, Eur. J. Pharmacol., 1994, 265, 179.
Male or female Mongolian gerbils (35-90 g) are anaesthetised by inhalation of an isoflurane/oxygen mixture to permit exposure of the jugular vein in order to permit administration of test compounds or vehicle in an injection volume of 5 ml/kg i.v. Alternatively, test compounds may be administered orally or by subcutaneous or intraperitoneal routes. A skin incision is then made in the midline of the scalp to expose the skull. […] The duration and/or intensity of hind foot tapping is then recorded continuously for approximately 5 minutes. Alternatively, the ability of test compounds to inhibit foot tapping evoked by aversive stimulation, such as foot shock or single housing, may be studied using a similar method of quantification.

[2] = test system: cisplatin-induced emesis in ferrets; assay: Ferret emesis assay; assay type: in vivo; conditions: p.o.
Method: Individually housed male ferrets (1.0-2.5 kg) are dosed orally by gavage with test compound. Ten minutes later they are fed with approximately 100 g of tinned cat food. At 60 minutes following oral dosing, cisplatin (10 mg/kg) is given i.v. via a jugular vein catheter inserted under a brief period of halothane anaesthesia. The catheter is then removed, the jugular vein ligated and the skin incision closed. The ferrets recover rapidly from the anaesthetic and are mobile within 10-20 minutes. The animals are observed continuously during recovery from the anaesthetic and for 4 hours following the cisplatin injection, after which time the animals are killed humanely. The numbers of retches and vomits occurring during the 4 hours after cisplatin administration are recorded by trained observers.

[3] = test system: distress vocalisations in guinea-pig pups; assay: Separation-induced vocalisation assay; assay type: in vivo; conditions: p.o.
Method: Male and female guinea-pigs pups are housed in family groups with their mothers and littermates throughout the study. Experiments are commenced […] when the pups are 2 weeks old. Before entering an experiment, the pups are screened to ensure that a vigorous vocalisation response is reproducibly elicited following maternal separation. The pups are placed individually in an observation cage (55 cm×39 cm×19 cm) in a room physically isolated from the home cage for 15 minutes and the duration of vocalisation during this baseline period is recorded. Only animals which vocalise for longer than 5 minutes are employed for drug challenge studies (approximately 50% of available pups may fail to reach this criterion). On test days each pup receives an oral dose or an s.c. or i.p. injection of test compound or vehicle and is then immediately returned to the home cage with its mother and siblings for 30 to 60 minutes (or for up to 4 hours following an oral dose, dependent upon the oral pharmacokinetics of the test compound) before social isolation for 15 minutes as described above. The duration of vocalisation on drug treatment days is expressed as a percentage of the pre-treatment baseline value for each animal. The same subjects are retested once weekly for up to 6 weeks. Between 6 and 8 animals receive each test compound at each dose tested.

[4] = test system: ferrets; assay: MC4R associated emesis in ferrets, Compound A and Compound B (Table 1); assay type: in vivo, ferret; conditions: Compound B 10 mg/kg PO; for % Emesis: ferrets; for # of Ferrets: ferrets with emesis/dosed
Method: (§1) Food intake (FI) was monitored at 1, 2, 4, and 24, hours after dosing. Body weight (BWT) was measured at the time of dosing and at 24 hours. Any incidence of emesis or abnormal behavior by subjects was recorded. Two studies were combined to generate the data.

[5] = Food intake in ad lib fed ferrets, Compound A and Compound B (FIG. 1); assay type: in vivo, ferret; conditions: oral, Compound B 10 mg/kg, Compound A 60 mg/kg or the combination, 1, 2, 4 and 24 hours after dosing
Method: FIG. 1. […] All food intake data were analyzed by two-tailed T-TEST.
as §1

Compound | gerbil foot-tapping (5 mins.) ID50 ([1]; 5 mins.) [mg/kg] | gerbil foot-tapping (24 hrs.) ID50 ([1]; 24 hrs.) [mg/kg] | ferret emesis ID90 [2] [mg/kg] | guinea-pig vocalisation (4 hr. pre-treatment) ID50 [3] [mg/kg] | % Emesis ([4]; 1 hour) [%] | % Emesis ([4]; 2 hours) [%] | % Emesis ([4]; 4 hours) [%] | % Emesis ([4]; Total) [%] | # of Ferrets ([4]; 1 hour) | # of Ferrets ([4]; 2 hours) | # of Ferrets ([4]; 4 hours) | # of Ferrets ([4]; Total) | Food intake [5]
C[C@@H](O[C@H]1OCCN(Cc2nc(=O)[nH][nH]2)[C@H]1c1ccc(F)cc1)c1cc(C(F)(F)F)cc(C(F)(F)F)c1 [2-(R)-(1-(R)-(3,5-bis(trifluoromethyl)phenyl)ethoxy)-3-(S)-(4-fluorophenyl)-4-(3-(5-oxo-1H,4H-1,2,4-triazolo)methyl)morpholine] | 0.36 | 0.33 | < 3 | 0.73 |  |  |  |  |  |  |  |  | 
C[C@@H](O[C@H]1OCCN(Cc2nn[nH]c2CN(C)C)[C@H]1c1ccc(F)cc1)c1cc(C(F)(F)F)cc(C(F)(F)F)c1 [Compound B, 2-(R)-(1-(R)-(3,5-bis(trifluoromethyl)phenyl)ethoxy)-4-(5-(dimethylamino)methyl-1,2,3-triazol-4-yl)methyl-3-(S)-(4-fluorophenyl)morpholine] |  |  |  |  | 0 | 0 | 0 | 0 | 0/9 | 0/9 | 0/9 | 0/9 | significantly reduced in the NK1 dose group at 24 hours only
